Tests used:
[1] = molecular target: T1, HCV NS5B RdRp genotype 1b (Hepatitis C virus genotype 1b, UniProt Q9WMX2); assay: HCV NS5B RdRp enzyme assay; type: biochemical; conditions: HCV RdRp genotype 1b enzyme; read-out: RdRp Inhibition Range, IC50
T1 construct: The protein was expressed with an 18 amino acid C-terminal truncation to enhance the solubility; made in house; host or cells: E. coli BL21(DE3)
Procedure: HCV NS5B RdRp cloning, expression, and purification. The cDNA encoding the NS5B protein of HCV, genotype 1b, was cloned into the pET21a expression vector. The protein was expressed with an 18 amino acid C-terminal truncation to enhance the solubility. The E. coli competent cell line BL21(DE3) was used for expression of the protein. Cultures were grown at 37° C. for ˜4 hours until the cultures reached an optical density of 2.0 at 600 nm. The cultures were cooled to 20° C. and induced with 1 mM IPTG. Fresh ampicillin was added to a final concentration of 50 μg/ml and the cells were grown overnight at 20° C.
Cell pellets (3 L) were lysed for purification to yield 15-24 mgs of purified NS5B. The lysis buffer consisted of 20 mM Tris-HCl, pH 7.4, 500 mM NaCl, 0.5% triton X-100, 1 mM DTT, 1 mM EDTA, 20% glycerol, 0.5 mg/ml lysozyme, 10 mM MgCl2, 15 ug/ml deoxyribonuclease I, and Complete TM protease inhibitor tablets (Roche). After addition of the lysis buffer, frozen cell pellets were resuspended using a tissue homogenizer. To reduce the viscosity of the sample, aliquots of the lysate were sonicated on ice using a microtip attached to a Branson sonicator. The sonicated lysate was centrifuged at 100,000×g for 1 hr at 4° C. and filtered through a 0.2 μm filter unit (Corning). […]
HCV NS5B RdRp enzyme assay. […] Plates were read on a Packard Top Count NXT. […]

HCV replicon = HCV replicon FRET assay (HCV RdRp cell line); type: cell-based; conditions: Hepatitis C virus, read-out: RdRp Inhibition Range, EC50
From the text: FRET Assay Preparation. To perform the HCV FRET screening assay, 96-well cell culture plates were used. The FRET peptide (Anaspec, Inc.) (Taliani et al., Anal. Biochem. 240:60-67 (1996), expressly incorporated by reference in its entirety) contains a fluorescence donor, EDANS, near one end of the peptide and an acceptor, DABCYL, near the other end. The fluorescence of the peptide is quenched by […] resonance energy transfer (RET) between the donor and the acceptor, but as the NS3 protease cleaves the peptide the products are released from RET quenching and the fluorescence of the donor becomes apparent. […]
FRET Assay and Cytotoxicity Assay. […] After reading in a Cytoflour 4000 instrument (PE Biosystems), plates were rinsed with PBS and then used for FRET assay by the addition of 30 ul of the FRET peptide assay reagent described above (FRET Assay Preparation) per well. The plate was then placed into the Cytoflour 4000 instrument which had been set to 340 excite/490 emission, automatic mode for 20 cycles and the plate read in a kinetic mode. Typically, the signal to noise using an endpoint analysis after the reads was at least three-fold.
Compound analysis was determined by quantification of the relative HCV replicon inhibition and the relative cytotoxicity values. […]

T1 sequence (Q9WMX2 2420-2992): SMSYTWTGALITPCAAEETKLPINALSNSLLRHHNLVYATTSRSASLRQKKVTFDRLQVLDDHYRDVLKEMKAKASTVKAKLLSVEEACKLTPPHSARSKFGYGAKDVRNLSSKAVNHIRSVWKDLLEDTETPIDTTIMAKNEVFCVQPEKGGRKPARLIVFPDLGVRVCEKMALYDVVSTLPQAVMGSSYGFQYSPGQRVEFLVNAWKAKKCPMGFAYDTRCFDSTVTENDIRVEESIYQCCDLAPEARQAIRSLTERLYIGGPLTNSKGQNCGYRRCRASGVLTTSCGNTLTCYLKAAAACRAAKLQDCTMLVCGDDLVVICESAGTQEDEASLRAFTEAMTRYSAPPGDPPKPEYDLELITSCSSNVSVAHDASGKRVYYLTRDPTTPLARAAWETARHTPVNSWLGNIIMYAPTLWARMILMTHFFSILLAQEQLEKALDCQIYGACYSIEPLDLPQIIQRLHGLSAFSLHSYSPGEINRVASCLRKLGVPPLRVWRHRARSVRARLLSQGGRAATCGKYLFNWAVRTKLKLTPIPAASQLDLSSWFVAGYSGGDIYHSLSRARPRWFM

SMILES | IC50 [1] [µM] | EC50 (HCV replicon) [µM]
Cn1c(-c2ccoc2)c(C2CCCCC2)c2ccc(C(=O)Nc3nnn[nH]3)cc21 [Compound 1] | 0.1 to 1 | < 5
Cn1c(-c2ccoc2)c(C2CCCCC2)c2ccc(-c3nnn[nH]3)cc21 [Compound 2] | 0.1 to 1 | 5 to 10

— US20050119318A1, “Inhibitors of HCV replication” (priority 2003, published 2005)
